Like-named read-outs stand apart in the source and are kept apart here.

By koff is commonly meant the first-order rate constant of dissociation. Broadly, the kon is the second-order rate constant of association.

One assay has as its target T1, ACSS2 (Homo sapiens, UniProt Q9NR19).
T1 construct: His-tag (N); His-tag (C); made in house; host or cells: E. coli BL21 (DE3) RIL
Put plainly: SPR binding to immobilized ACSS2. As to conditions: mean. On the procedure: Overproduction of ACSS2 was achieved using a prokaryotic expression system. […] The bacterial expressions were then spun down, the supernatant discarded, and the pellets resuspended in 50 mM Tris HCl pH8.0, 800 mM NaCl, 5 mM Imidazole, 2 mM MgCl2, 10% Glycerol, 0.1 mg/mL Lysozyme, 1 mM Protease inhibitor (PMSF). After the cells were lysed via sonication, the sample was subjected to ultracentrifugation, and the clarified lysate was applied to a 5 mL Talon cobalt resin affinity column (Clonetech Laboratories, Mountain View, CA). The bound protein was washed with 300 mL wash buffer 1 (20 mM Tris HCl pH8.0, 800 mM NaCl, 15 mM Imidazole, 5 mM MgCl2, 10% Glycerol, 0.1% CHAPS) and 300 mL wash buffer 2 (20 mM Tris HCl pH8.0, 400 mM NaCl, 18 mM Imidazole, 5 mM MgCl2, 10% Glycerol) prior elution with 20 mM Tris HCl pH8.0, 400 mM NaCl, 300 mM Imidazole, 2 mM MgCl2, 5% Glycerol. Eluted ACSS2 was then dialyzed overnight into 20 mM Tris HCl pH8.0, 150 mM NaCl, 5% Glycerol, concentrated and applied to a Superdex S-200 (16/600) using the same buffer without Glycerol. ACSS2 fractions were pooled, concentrated to 3 mg/mL, aliquoted, and stored at −80°C. hACSS1 was obtained from a commercial vendor (www.mybiosource.com).
All binding assays were performed on a ProteOn XPR36 SPR Protein Interaction Array System (Bio-Rad Laboratories, Hercules, CA, United States). The instrument temperature was set at 25°C for all kinetic analyses. ProteOn GLH sensor chips were preconditioned with two short pulses each (10 s) of 50 mM NaOH, 100 mM HCl, and 0.5% sodium […]. Then, the system was equilibrated with running buffer (1x PBS pH 7.4, 3% DMSO, and 0.005% polysorbate 20). The surface of a GLH sensor chip was activated with a 1:100 dilution of a 1:1 mixture of 1-ethyl-3-(3-dimethylaminopropyl) carbodiimide hydrochloride (0.2 M) and sulfo-N-hydroxysuccinimide (0.05 M). Immediately after chip activation, the human ACSS2 or hACSS1 proteins were prepared at a concentration of 10 μg/mL in 10 mM sodium acetate, pH 5.5, and injected across ligand flow channels for 5 min at a flow rate of 30 μL/min. Then, after unreacted protein had been washed out, excess active ester groups on the sensor surface were capped by a 5 min injection of 1M ethanolamine HCl (pH 8.0) at a flow rate of 5 μL/min. A reference surface was similarly created by immobilizing a nonspecific protein (IgG b12 anti-HIV-1 gp120; was obtained through the NIH AIDS Reagent Program, Division of AIDS, NIAID, NIH: Anti-HIV-1 gp120 Monoclonal (IgG1 b12) from Dr. Dennis Burton and Carlos Barbas) and was used as a background to correct nonspecific binding. […] Data were analyzed using the ProteOn Manager Software version 3.0 (Bio-Rad). The responses from the reference flow cell were subtracted to account for the nonspecific binding and injection artifacts. Experimental data were fitted to a simple 1:1 binding model. Experiments were performed in triplicate to detect kinetic and equilibrium dissociation constants (KD).

Assay [1] has as its system MDA-MB-231BR tumor bearing brain slices. Put plainly: Ex vivo tumor-brain slice model. Also on record: species or system Nu/Nu mice. As to conditions: MDA-MB-231BR brain slices, 100 μM, 6 days, bioluminescence. On the procedure:
Ex vivo brain slice tumor model was performed as previously described ([Ciraku et al., 2021]). Briefly, Nu/Nu athymic 4–6 week old mice Charles River Laboratories (Wilmington, MA, United States) were immobilized using the Just for Mice Stereotaxic Frame (Harvard Apparatus, Holliston, MA, United States) and injected intracranially with 5uL of 20,000 cells/uL solution of luciferase tagged MDA-MB-231BR or 4T1BR cells. Tumor growth was monitored via bioluminescence imaging on the IVIS system (Perkin Elmer, Waltman, MA, United States). Organotypic hippocampal cultures were prepared as described previously ([Ciraku et al., 2021]). Briefly, adult mice (4–6 weeks) or mice after 12 days following intracranial injection were decapitated and their brains rapidly removed into ice-cold (4°C) sucrose-aCSF composed of the following (in mM): 280 sucrose, 5 KCl, 2 MgCl2, 1 CaCl2, 20 glucose, 10 HEPES, 5 Na^+-ascorbate, 3 thiourea, 2 Na^+-pyruvate; pH = 7.3. […] Tumor growth was monitored via bioluminescence imaging on the IVIS 200 system (Perkin Elmer), and results were analyzed using Living Image software (Caliper Life Sciences, Waltham, MA, United StatesUnited States). […] Tissues were incubated at 37 ℃ , 5% CO2 for 4 h, and absorbance at 490 nm was measured with a Tecan Spark Microplate reader.

T1 sequence (Q9NR19 whole entry): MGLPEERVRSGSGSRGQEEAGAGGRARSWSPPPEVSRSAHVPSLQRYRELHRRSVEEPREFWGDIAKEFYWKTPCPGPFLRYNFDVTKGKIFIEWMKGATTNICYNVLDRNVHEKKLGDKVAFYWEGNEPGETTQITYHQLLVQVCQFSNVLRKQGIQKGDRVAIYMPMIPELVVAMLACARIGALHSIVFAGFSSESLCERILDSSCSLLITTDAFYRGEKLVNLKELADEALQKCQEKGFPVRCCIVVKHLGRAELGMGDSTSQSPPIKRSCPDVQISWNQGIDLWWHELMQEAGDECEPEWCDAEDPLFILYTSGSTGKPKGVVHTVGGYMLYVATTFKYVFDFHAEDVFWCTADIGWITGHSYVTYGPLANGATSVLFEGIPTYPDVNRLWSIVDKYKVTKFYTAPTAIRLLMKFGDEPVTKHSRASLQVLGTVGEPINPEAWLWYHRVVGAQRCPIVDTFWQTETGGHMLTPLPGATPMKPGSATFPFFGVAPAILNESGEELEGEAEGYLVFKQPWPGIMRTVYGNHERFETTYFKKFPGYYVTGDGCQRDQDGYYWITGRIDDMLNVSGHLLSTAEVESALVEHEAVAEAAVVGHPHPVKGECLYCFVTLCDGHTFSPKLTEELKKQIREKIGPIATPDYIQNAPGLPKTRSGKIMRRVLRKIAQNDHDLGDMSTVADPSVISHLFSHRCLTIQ

`N[C@H](C(=O)N1CCCC(c2ccccc2)(c2ccccc2)C1)C1CC1` [AD-8007]: at ACSS2 (1:1 binding model, n=3, read-out: koff), the koff was determined as 0.547 s⁻¹. Further, at ACSS2 (1:1 binding model, n=3, read-out: kon), the kon worked out at 4790 M⁻¹ s⁻¹. Also, the Kd on ACSS2 (25°C, Langmuir isotherm equilibrium fit, n=3, read-out: KD equilibrium) is 117 µM; on ACSS2 (global fit, n=3, read-out: KD kinetic/global), 149 µM. Besides, in assay [1], the “tumor growth of preformed tumors ex vivo” value is reported as “significantly reduced tumor growth of preformed tumors”.

(Values after PMC11137182, “Selective and brain-penetrant ACSS2 inhibitors target breast cancer brain metastatic cells” (Frontiers in Pharmacology, 2024).)
